Data as given in publication PMC10298626 (International Journal of Molecular Sciences, 2023).
Marks after values point to notes of the source that are not given here.

Legend:
acetylcholinesterase = target: acetylcholinesterase; set-up: method as in PMID 8823504, PMID 7649881, PMID 9535168; settings: read-out: IC50 against acetylcholinesterase; cited from earlier work
[1] = test system: LPS-stimulated RAW264.7 cells; experiment: NO production (Griess reagent) in LPS-stimulated RAW264.7 cells; format: cell-based, Mouse; settings: then LPS (500 ng/mL) 20 h, LPS alone 25.9, control 3.1
Method: A high concentration of NO promotes the synthesis of inflammatory mediators, leading to an inflammatory response, and has been reported to be a cause of various immune diseases. Therefore, this study was conducted to investigate the effect of coumarin derivatives on the production of NO induced by LPS stimulation in RAW264.7 cells. The cells were treated with coumarin derivatives at concentrations of 20, 40, and 80 μM for 2 h. Then, the cells were treated with LPS. After 20 h, the culture supernatant was recovered, and the amount of NO was measured. […] The anti-inflammatory activity of these derivatives depended on the position of the substituted group rather than the electron density of the substituted group.
The Griess reagent was used to measure NO production. RAW264.7 cells were seeded into a 96-well plate and cultured for 24 h. The cells were treated with 20, 40, and 80 μM of coumarin derivatives, cultured for 2 h, and then cultured with LPS (500 ng/mL) for 20 h. The same amount of cell supernatant and Griess reagent were used for the reaction, and absorbance was measured at 540 nm.

in vitro = format: cell-based; settings: mouse, RAW264.7 cells, then LPS (500 ng/mL) 20 h, read-out: Cell viability, Average (%)
Method: To investigate the anti-inflammatory activity of coumarin derivatives, cell viability was analyzed by treating RAW264.7 cells with 23 types of coumarin derivatives at concentrations of 20, 40, and 80 μM for 2 h and with LPS for 20 h.
Mouse macrophage RAW264.7 cells were purchased from the Korea Cell Line Bank (Seoul, Republic of Korea) and cultured in Dulbecco’s Modified Eagle Medium (Corning, NY, USA) containing 10% fetal bovine serum and 1% penicillin/streptomycin at 37 °C and 5% CO2. The medium was changed every 2 days and subcultured when the cells grew > 80%.
EZ-Cytox cell viability assay kit (Dogen, Suwon, Republic of Korea) was used to measure cell viability according to the manufacturer’s instructions. RAW264.7 cells were seeded into a 96-well plate (1 × 10^5 cells/well) and treated with coumarin derivatives at concentrations of 20, 40, and 80 μM. After 2 h, the cells were treated with LPS (500 ng/mL) and cultured for 24 h in a 37 °C, 5% CO2 incubator. The culture supernatant was treated with 10% EZ-Cytox reagent, and a microplate reader was used to measure the absorbance at 450 nm.

[2] = test system: LPS-stimulated RAW264.7 cells; experiment: NO production (Griess reagent) in LPS-stimulated RAW264.7 cells; format: cell-based, Mouse; settings: Dexamethasone (100 μM) treated for 2 h and LPS treated for 20 h; LPS alone 25.9, control 3.1

COc1ccc(-c2cc3c(c(=O)o2)C[C@]2(O)[C@@]4(C)C(=O)C=CC(C)(C)[C@]4(O)CC[C@@]2(C)O3)cc1OC [Arisugacin A]
IC50 (acetylcholinesterase): 1 nM

COc1ccc(-c2cc3c(c(=O)o2)C[C@]2(O)[C@@]4(C)C(=O)C=CC(C)(C)[C@]4(O)CC[C@@]2(C)O3)cc1 [Arisugacin B]
IC50 (acetylcholinesterase): 26 nM

N#CC1=C(N)Oc2c(c(=O)oc3ccccc23)C1c1ccccc1 (stereo not drawn) [Coumarin derivative 23]
NO production, Average ([1]; 20 μM for 2 h): 30.77 µM | NO production, Average ([1]; 40 μM for 2 h): 29.80 µM | NO production, Average ([1]; 80 μM for 2 h): 27.39 µM | viability at 22 h, 20 μM (in vitro; 20 μM for 2 h): 119% | viability at 22 h, 40 μM (in vitro; 40 μM for 2 h): 118% | viability at 22 h, 80 μM (in vitro; 80 μM for 2 h): 117%

C[C@@H]1C[C@H]2[C@@H]3CCC4=CC(=O)C=C[C@]4(C)[C@@]3(F)[C@@H](O)C[C@]2(C)[C@@]1(O)C(=O)CO [Dexamethasone]
NO production, Average (μM) [2]: 6.5 ^# μM
